Test results taken from US20150238614A1, “STABILISED AMORPHOUS FORM OF AGOMELATINE, A PROCESS FOR ITS PREPARATION AND PHARMACEUTICAL COMPOSITIONS CONTAINING IT” (LES LABORATOIRES SERVIER, priority 2012, published 2015).
Converted amounts (≈) assume the structure as drawn.

Key:
[1] = Solubility study, Crystal16 apparatus, pH 6.8 buffer, nephelometric detection; assay type: physicochemical; details: pH 6.8 buffer solution, aqueous buffer, thermodynamic from solid, 25° C., reference under the study conditions, read-out: Solubility of agomelatine (reference)
Protocol: Various concentrations were tested and the presence of insoluble particles was monitored by nephelometric detection.

[2] = Glass transition temperature by scanning calorimetric analysis (DSC); assay type: physicochemical
Protocol: The Applicant has now discovered that agomelatine has an amorphous state whose glass transition temperature has been measured at −6° C. by scanning calorimetric analysis, or DSC (“Differential Scanning calorimetry”). Above that temperature, the active ingredient undergoes a transition towards a crystalline form. Preserving agomelatine in the amorphous state at ambient temperature is therefore not possible.

[3] = 25° C.; cited from earlier work

For COc1ccc2cccc(CCNC(C)=O)c2c1 [agomelatine, N-[2-(7-methoxy-1-naphthyl)ethyl]acetamide], the solubility at 4 h [1] is given as 140 µg/mL (≈ 575 µM), the “Glass transition temperature of the amorphous state” value [2] is given as −6 °C and the “Solubility of agomelatine in water” value [3] is given as “less than 0.15 mg/ml”.
